The nature of this data set: Dissolution of TT001 in I.V. formulation vehicle. Conditions: 0.1 to 10 mg/ml in 40% w/v HPβCD solution in water for injection; a couple of hours for complete dissolution. The class given is physicochemical. The procedure: FORMULATION METHOD FOR THE PREPARATION OF TT001 FOR I.V. DOSING, 0.1 to 10 mg/ml The formulation method is applicable at concentrations in formulation between 0.1 and 10 mg/mL corresponding to 0.262 and 26.2 μmol/mL • TT001 M.W.: 381.8 g/mol • 10 The dissolution of TT001 is moderate, allow a couple of hours for complete dissolution.
• Preparation of 40% w/v HPβCD solution in water for injection • Excipients Hydroxypropyl-β-cyclodextrin, Kleptose, Roquette (HPβCD) 400 mg (40% w/v) • Water for injection to 1 ml (1.13 g) • is Appearance Clear • Density 1.13 g/cm^3
• Preparation of TT001 I.V. formulations between 0.1 and 10 mg/ml • TT001 parent form 0.1-10 mg • Vehicle (40% w/v HPβCD solution in water for injection) to 1 ml (1.13 g) • Appearance Clear • Density 1.13 g/cm^3 • Comments

For the molecule `C[C@@H](Oc1nnc(-c2ccncc2)n1C)c1cc(-c2cccc(Cl)c2)on1` [TT001, 4-[5-[(1R)-1-[5-(3-Chlorophenyl)-3-isoxazolyl]ethoxy]-4-methyl-4H-1,2,4-triazol-3-yl]pyridine], the dissolution entry is listed as “moderate”.

The values are drawn from patent US20260124188A1, “mGluR receptor antagonists for use in prevention andor treatment of bone marrow lesions (BML) andor osteoporosis, cartilage loss, osteosclerosis and osteitis in a mammal” (Orphelion AB, priority 2022, published 2026).
